# Experimental data from US9833497B2, “Human originated EGF domain proteins and use of the same” (CHENGDU SOURCEBIO LIMITED-LIABILITY COMPANY, priority 2013, dated 2017).
# Experiments:
# Format in all cases: cell-based
# Citrobacter diversus = assay: MIC against Gram-negative bacteria: Citrobacter diversus; conditions: for MIC / MIC (μg/mL) C. diversus: C. diversus
# How it was run: (§1)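 Bacteria grown in LB at 37° C with shaking to McFarland 0.5, pelleted and resuspended in fresh LB, then seeded at 5×10^5 CFU/mL per well. Purified recombinant human EGF domain proteins were two-fold serially diluted in triplicate and plates shaken at 37° C, 175 rpm. MIC is the lowest protein concentration with no bacterial growth.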
# Moraxella catarrhalis = assay: MIC against Gram-negative bacteria: Moraxella catarrhalis; conditions: for MIC / MIC (μg/mL) M. catarrhalis: M. catarrhalis
# How it was run: as §1
# Proteus mirabilis = assay: MIC against Gram-negative bacteria: Proteus mirabilis; conditions: for MIC / MIC (μg/mL) P. mirabilis: P. mirabilis
# How it was run: as §1
# Pseudomonas aeruginosa = assay: MIC against Gram-negative bacteria: Pseudomonas aeruginosa; conditions: for MIC / MIC (μg/mL) P. aeruginosa: P. aeruginosa
# How it was run: as §1
# Enterobacter cloacae = assay: MIC against Gram-negative bacteria: Enterobacter cloacae; conditions: for MIC / MIC (μg/mL) E. cloacae: E. cloacae
# How it was run: as §1
# Klebsiella pneumonia = assay: MIC against Gram-negative bacteria: Klebsiella pneumonia; conditions: for MIC / MIC (μg/mL) K. pneumonia: K. pneumonia
# How it was run: as §1
# Serratia marcescens = assay: MIC against Gram-negative bacteria: Serratia marcescens; conditions: for MIC / MIC (μg/mL) S. marcescens: S. marcescens
# How it was run: as §1
# Proteus vulgaris = assay: MIC against Gram-negative bacteria: Proteus vulgaris; conditions: for MIC / MIC (μg/mL) P. vulgaris: P. vulgaris
# How it was run: as §1
# E. coli BL21 = assay: MIC against Gram-negative bacteria: E. coli BL21
# How it was run: as §1
# Aeromonas hydrophila = assay: MIC against Gram-negative bacteria: Aeromonas hydrophila; conditions: for MIC / MIC (μg/mL) A. hydrophila: A. hydrophila
# How it was run: as §1
# E. coli DH5α = assay: Antibacterial activity: MIC and growth curve against E. coli DH5α in 96-well plate; conditions: minimal inhibitory concentration against E. coli DH5α; 96-well plate, 5×10^5 CFU/mL, 37° C., judged after 8 h
# How it was run: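 Log-phase DH5α (OD600 about 0.5, 37° C, 185 rpm in LB) was pelleted, resuspended in fresh LB and seeded at 5×10^5 CFU/mL with recombinant protein at 50, 25 and 12.5 μg/mL (two-fold series), in triplicate. Plates were shaken at 175 rpm, 37° C, and OD600 was read every 30 min. MIC was the lowest concentration with no growth.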
# [1] = 96-well plate, 5×10^5 CFU/mL, 37° C., 10 h
# [2] = 10 h cultivation at 37° C., 5×10^5 CFU/mL
# [3] = E. coli BL21, 10 h cultivation at 37° C., 5×10^5 CFU/mL
# [4] = 10 h cultivation at 37° C., 5×10^5 CFU/mL, two-fold serial dilution
substance,measurement,setting,value
PRT1389 (PEEQCIDPTCFGHGTCIMGVCICVPGYKGEICE; listed as Homo sapiens),MIC against C. diversus,"Citrobacter diversus; Citrobacter diversus, 5×10^5 CFU/mL, 10 h cultivation at 37° C.",12.5 µg/mL
same,MIC against M. catarrhalis,"Moraxella catarrhalis; Moraxella catarrhalis, 5×10^5 CFU/mL, 10 h cultivation at 37° C.",12.5 µg/mL
same,MIC against P. mirabilis,"Proteus mirabilis; Proteus mirabilis, 5×10^5 CFU/mL, 10 h cultivation at 37° C.",12.5 µg/mL
same,MIC against P. aeruginosa,"Pseudomonas aeruginosa; Pseudomonas aeruginosa, 5×10^5 CFU/mL, 10 h cultivation at 37° C.",25 µg/mL
same,MIC against E. cloacae,"Enterobacter cloacae; Enterobacter cloacae, 5×10^5 CFU/mL, 10 h cultivation at 37° C.",25 µg/mL
same,MIC against K. pneumonia,"Klebsiella pneumonia; Klebsiella pneumonia, 5×10^5 CFU/mL, 10 h cultivation at 37° C.",12.5 µg/mL
same,MIC against S. marcescens,"Serratia marcescens; Serratia marcescens, 5×10^5 CFU/mL, 10 h cultivation at 37° C.",12.5 µg/mL
same,MIC against P. vulgaris,"Proteus vulgaris; Proteus vulgaris, 5×10^5 CFU/mL, 10 h cultivation at 37° C.",25 µg/mL
same,MIC against E. coli BL21,"E. coli BL21; E. coli BL21, 5×10^5 CFU/mL, 10 h cultivation at 37° C.",12.5 µg/mL
same,MIC against A. hydrophila,"Aeromonas hydrophila; Aeromonas hydrophila, 5×10^5 CFU/mL, 10 h cultivation at 37° C.",12.5 µg/mL
same,MIC,E. coli DH5α,25 µg/mL
PRT540 (CVCHGHADACDAKDPTDPFRLQCTCQHNTCGGTCDRCCPGFNQQPWKPATANSANECQS; listed as Homo sapiens),MIC against C. diversus,Citrobacter diversus; [1],25 µg/mL
same,MIC against M. catarrhalis,Moraxella catarrhalis; [1],50 µg/mL
same,MIC against P. mirabilis,Proteus mirabilis; [1],25 µg/mL
same,MIC against P. aeruginosa,Pseudomonas aeruginosa; [1],12.5 µg/mL
same,MIC against E. cloacae,Enterobacter cloacae; [1],50 µg/mL
same,MIC against K. pneumonia,Klebsiella pneumonia; [1],12.5 µg/mL
same,MIC against S. marcescens,Serratia marcescens; [1],50 µg/mL
same,MIC against P. vulgaris,Proteus vulgaris; [1],12.5 µg/mL
same,MIC against E. coli BL21,E. coli BL21; [1],50 µg/mL
same,MIC against A. hydrophila,Aeromonas hydrophila; [1],12.5 µg/mL
same,MIC,E. coli DH5α,12.5 µg/mL
PRT914 (DARTCGSLRCLNGGTCISGPRSPTCLCLGPFTGPECQ; listed as Homo sapiens),MIC,Citrobacter diversus; 10 h cultivation at 37° C.,12.5 µg/mL
same,MIC,Moraxella catarrhalis; 10 h cultivation at 37° C.,12.5 µg/mL
same,MIC,Proteus mirabilis; 10 h cultivation at 37° C.,12.5 µg/mL
same,MIC,Pseudomonas aeruginosa; 10 h cultivation at 37° C.,12.5 µg/mL
same,MIC,Enterobacter cloacae; 10 h cultivation at 37° C.,25 µg/mL
same,MIC,Klebsiella pneumonia; 10 h cultivation at 37° C.,12.5 µg/mL
same,MIC,Serratia marcescens; 10 h cultivation at 37° C.,12.5 µg/mL
same,MIC,Proteus vulgaris; 10 h cultivation at 37° C.,12.5 µg/mL
same,MIC,"E. coli BL21; E. coli BL21, 10 h cultivation at 37° C.",25 µg/mL
same,MIC,Aeromonas hydrophila; 10 h cultivation at 37° C.,12.5 µg/mL
same,MIC,E. coli DH5α,12.5 µg/mL
PRT829 (FGPSCTLHCDCGGGADCDPVSGQCHCVDGYMGPTCR; listed as Homo sapiens),MIC (μg/mL) C. diversus,Citrobacter diversus; [2],12.5 µg/mL
same,MIC (μg/mL) M. catarrhalis,Moraxella catarrhalis; [2],25 µg/mL
same,MIC (μg/mL) P. mirabilis,Proteus mirabilis; [2],50 µg/mL
same,MIC (μg/mL) P. aeruginosa,Pseudomonas aeruginosa; [2],12.5 µg/mL
same,MIC (μg/mL) E. cloacae,Enterobacter cloacae; [2],50 µg/mL
same,MIC (μg/mL) K. pneumonia,Klebsiella pneumonia; [2],25 µg/mL
same,MIC (μg/mL) S. marcescens,Serratia marcescens; [2],12.5 µg/mL
same,MIC (μg/mL) P. vulgaris,Proteus vulgaris; [2],12.5 µg/mL
same,MIC (μg/mL) E. coli BL21,E. coli BL21; [3],25 µg/mL
same,MIC (μg/mL) A. hydrophila,Aeromonas hydrophila; [2],25 µg/mL
same,MIC,E. coli DH5α,50 µg/mL
PRT1087 (HEEPCGPSHKSFCLNGGLCYVIPTIPSPFCRCVENYTGARCE; listed as Homo sapiens),MIC C. diversus,Citrobacter diversus; [4],25 µg/mL
same,MIC M. catarrhalis,Moraxella catarrhalis; [4],50 µg/mL
same,MIC P. mirabilis,Proteus mirabilis; [4],25 µg/mL
same,MIC P. aeruginosa,Pseudomonas aeruginosa; [4],50 µg/mL
same,MIC E. cloacae,Enterobacter cloacae; [4],50 µg/mL
same,MIC K. pneumonia,Klebsiella pneumonia; [4],50 µg/mL
same,MIC S. marcescens,Serratia marcescens; [4],25 µg/mL
same,MIC P. vulgaris,Proteus vulgaris; [4],25 µg/mL
same,MIC E. coli BL21,E. coli BL21; [4],12.5 µg/mL
same,MIC A. hydrophila,Aeromonas hydrophila; [4],12.5 µg/mL
same,MIC,E. coli DH5α,50 µg/mL
PRT777 (SGDRCQLQTRCQNGGQWDGLKCQCPSTFYGSSCE; listed as Homo sapiens),MIC (μg/mL) C. diversus,Citrobacter diversus; [2],50 µg/mL
same,MIC (μg/mL) M. catarrhalis,Moraxella catarrhalis; [2],12.5 µg/mL
same,MIC (μg/mL) P. mirabilis,Proteus mirabilis; [2],50 µg/mL
same,MIC (μg/mL) P. aeruginosa,Pseudomonas aeruginosa; [2],50 µg/mL
same,MIC (μg/mL) E. cloacae,Enterobacter cloacae; [2],12.5 µg/mL
same,MIC (μg/mL) K. pneumonia,Klebsiella pneumonia; [2],12.5 µg/mL
same,MIC (μg/mL) S. marcescens,Serratia marcescens; [2],12.5 µg/mL
same,MIC (μg/mL) P. vulgaris,Proteus vulgaris; [2],25 µg/mL
same,MIC (μg/mL) E. coli BL21,E. coli BL21; [3],12.5 µg/mL
same,MIC (μg/mL) A. hydrophila,Aeromonas hydrophila; [2],50 µg/mL
same,MIC,E. coli DH5α,50 µg/mL
PRT424 (DINECVTDLHTCSRGEHCVNTLGSFHCYKALTCEPGYALKDGECE; listed as Homo sapiens),MIC,Citrobacter diversus; [2],25 µg/mL
same,MIC,Moraxella catarrhalis; [2],12.5 µg/mL
same,MIC,Proteus mirabilis; [2],25 µg/mL
same,MIC,Pseudomonas aeruginosa; [2],25 µg/mL
same,MIC,Enterobacter cloacae; [2],25 µg/mL
same,MIC,Klebsiella pneumonia; [2],12.5 µg/mL
same,MIC,Serratia marcescens; [2],25 µg/mL
same,MIC,Proteus vulgaris; [2],50 µg/mL
same,MIC,E. coli BL21; [3],50 µg/mL
same,MIC,Aeromonas hydrophila; [2],50 µg/mL
same,MIC,E. coli DH5α,25 µg/mL
